Legend:
Assay type in all cases: in vivo
Mustard [1] = test: Post-emergence herbicidal activity (Example 32); settings: 3 weeks after spraying
Description: (§1) Concentrated formulations of the compounds of the invention were prepared by: • a) in the case of oils and waxy solids, dissolving the compound in toluene containing 7% v/v "Teric" N13 ("Teric" is a Trade MarK and "Teric" N13, a product of ethoxylation of nonylphenol, is available from ICI Australia Limited) and 3% v/v "Kemmat" SC15B ("Kemmat" is a Trade Mark and "Kemmat" SC15B is a formulation of calcium dodecylbenzene sulfonate); or • b) in the case of crystalline solids, adding 5 parts by weight of the compound and 1 part by weight of . ''Dyapol" PT ("Dyapol" is a Trade Mark and "Dyapol" PT is an anionic suspending agent) to 94 parts by weight of an aqueous solution containing 0.25% v/v of "Teric" N8 (a product of ethoxylation of nonylphenol) and ball-milling the mixture to produce a stable suspension. The emulsifiable concentrates and suspensions were then diluted with water to give an aqueous composition of the required concentration suitable for use in the evaluation of the pre-emergence and post-emergence herbicidal activity of the compounds of the invention.
(§2) The post-emergent herbicidal activity of the compounds of the invention formulated as described in Example 30 was assessed by the following procedure.
(§3) The seeds of the test species were sown in rows 2 cm deep in soil contained in seed boxes. The monocotyledonous plants and the dicotyledonous plants were sown in separate seed boxes in duplicate. The four seed boxes were placed in a glasshouse, lightly watered with an overhead spray to initiate germination and then sub-irrigated as required for optimum plant growth. After the plants had grown to a height of about 10 to 12.5 cm one box of each of the monocotyledonous plants and the dicotyledonous plants was removed from the glasshouse and sprayed with the required quantity of a composition of the invention. After spraying the boxes were returned to the glasshouse for further 3 weeks and the effects of the treatment was visually assessed by comparison with the untreated controls. The results are presented in Table 4 where the damage to plants is rated on a scale of from 0 to 3 where 0 represents 0 to 25% damage, 3 represents 75 to 99% kill and 3+ represents 100% kill. A dash (-) means that no experiment was carried out.

Ipomea [2] = test: Post-emergence herbicidal activity (Example 32); settings: 3 weeks after spraying
Description: as §1, §2, §3

Sunflower [3] = test: Post-emergence herbicidal activity (Example 32); settings: 3 weeks after spraying
Description: as §1, §2, §3

Japanese millet [4] = test: Post-emergence herbicidal activity (Example 32); settings: 3 weeks after spraying
Description: as §1, §2, §3

Ryegrass [5] = test: Post-emergence herbicidal activity (Example 32); settings: 3 weeks after spraying
Description: as §1, §2, §3

Wild Oats [6] = test: Post-emergence herbicidal activity (Example 32); settings: 3 weeks after spraying
Description: as §1, §2, §3

Mustard [7] = test: Pre-emergence herbicidal activity (Example 31); settings: after three weeks
Description: as §1
(§4) The pre-emergent herbicidal activity of the compounds of the invention formulated as described in Example 30 was assessed by the following procedure.
(§5) The seeds of the test species were sown in rows 2 cm deep in soil contained in seed boxes. The monocotyledonous plants and the dicotyledonous plants were sprayed with the required quantity of a composition of the invention. Two duplicate seed Doxes were prepared in the same manner but were not sprayed with a composition of the invention and were used for comparison purposes. All the boxes were placed in a glasshouse, lightly watered with an overhead spray to initiate germination and then sub-irrigated as required for optimum plant growth. After three weeks the boxes were removed from the glasshouse and the effect of the treatment was visually assessed. The results are presented in Table 3 where the damage to plants is rated on a scale of from 0 to 3 where 0 represents from 0 to 25% damage, 3 represents 75 to 99% kill and 3+ represents 100% kill.
(§6) A dash (-) means that no experiment was carried out.

Ipomea [8] = test: Pre-emergence herbicidal activity (Example 31); settings: after three weeks
Description: as §1, §4, §5, §6

Sunflower [9] = test: Pre-emergence herbicidal activity (Example 31); settings: after three weeks
Description: as §1, §4, §5, §6

Japanese millet [10] = test: Pre-emergence herbicidal activity (Example 31); settings: after three weeks
Description: as §1, §4, §5, §6

Wild Oats [11] = test: Pre-emergence herbicidal activity (Example 31); settings: after three weeks
Description: as §1, §4, §5, §6

Wheat [12] = test: Post-emergence herbicidal activity (Example 32); design: key: 0-3 scale: 0 = 0-25% damage, 3 = 75-99% kill, 3+ = 100% kill; settings: 3 weeks after spraying
Description: as §1, §2, §3

Ryegrass [13] = test: Pre-emergence herbicidal activity (Example 31); design: key: 0-3 scale: 0 = 0-25% damage, 3 = 75-99% kill, 3+ = 100% kill; settings: after three weeks
Description: as §1, §4, §5, §6

Wheat [14] = test: Pre-emergence herbicidal activity (Example 31); design: key: 0-3 scale: 0 = 0-25% damage, 3 = 75-99% kill, 3+ = 100% kill; settings: after three weeks
Description: as §1, §4, §5, §6

Rice [15] = test: Post-emergence herbicidal test, young pot plants (Example 33); settings: 2.0 kg/ha, after 14 days
Description: (§7) The compounds were formulated for test by mixing an appropriate amount with 5 ml of an emulsion prepared by diluting 160 ml of a solution containing 21.S g per litre of "Span" 80 and 78.2 g per litre of "Tween" 20 in methylcyclohexanone to 500 ml with water. "Span" 80 is a Trade Mark for a surface-active agent comprising sorbitan monolaurate. "Tween" 20 is a Trade Mark for a surface-active agent comprising a condensate of sorbitan monolaurate with 20 molar proportions of ethylene oxide. Each 5 ml emulsion containing a test compound was'then diluted to 40 ml with water and sprayed on to young pot plants (post-emergence test) of the species named in Table 5 below. Damage to test plants was assessed after 14 days on a scale of 0 to 5 where 0 is 0 to 20% damage and 5 is complete kill. In a test for pre-emergence herbicidal activity, seeds of the test plants were sown in a shallow slit formed in the surface of soil in fibre trays. The surface was then levelled and sprayed, and fresh soil then spread thinly over the sprayed surface. Assessment of herbicidal damage was carried out after 21 days using the same scale of 0 to 5 as the post-emergence test. In both cases the degree of herbicidal damage was assessed by comparison with untreated control plants. A dash (-) means that no experiment was carried out.

Maize [16] = test: as above; settings: 2.0 kg/ha, after 14 days
Description: as §7

Winter wheat [17] = test: as above; design: key: 0 = 0-20% damage, 5 = complete kill, vs untreated control; settings: 2.0 kg/ha, after 14 days
Description: as §7

Chenopodium album = test: as above; settings: 2.0 kg/ha, after 14 days
Description: as §7

Ipomea purpurea = test: as above; settings: 2.0 kg/ha, after 14 days
Description: as §7

Cotton [18] = test: as above; settings: 2.0 kg/ha, after 14 days
Description: as §7

Sugar beet [19] = test: as above; settings: 2.0 kg/ha, after 14 days
Description: as §7

Amaranthus retroflexus = test: as above; settings: 2.0 kg/ha, after 14 days
Description: as §7

Polygonum aviculare = test: as above; settings: 2.0 kg/ha, after 14 days
Description: as §7

Rape [20] = test: as above; settings: 2.0 kg/ha, after 14 days
Description: as §7

Soy bean [21] = test: as above; settings: 2.0 kg/ha, after 14 days
Description: as §7

Senecio vulgaris [22] = test: as above; settings: 2.0 kg/ha, after 14 days
Description: as §7

Maize [23] = test: Pre-emergence herbicidal test, fibre trays (Example 33); design: key: 0 = 0-20% damage, 5 = complete kill, vs untreated control; settings: 2.0 kg/ha, after 21 days
Description: as §7

Rice [24] = test: as above; settings: 2.0 kg/ha, after 21 days
Description: as §7

Cotton [25] = test: as above; settings: 2.0 kg/ha, after 21 days
Description: as §7

Sugar beet [26] = test: as above; settings: 2.0 kg/ha, after 21 days
Description: as §7

Winter wheat [27] = test: as above; settings: 2.0 kg/ha, after 21 days
Description: as §7

Rape [28] = test: as above; settings: 2.0 kg/ha, after 21 days
Description: as §7

Soy bean [29] = test: as above; settings: 2.0 kg/ha, after 21 days
Description: as §7

Senecio vulgaris [30] = test: as above; settings: 2.0 kg/ha, after 21 days
Description: as §7

For `COC(=O)C(C)Oc1ccc(N(C)c2ccc(Cl)cc2)cc1` (stereo not drawn) [Compound 13, Methyl 2-[4-(4-chloro-N-methylanilino)phenoxy]-propionate], the “damage to plants, Ms” value (Mustard [1]; 1 kg/ha) was 0 (0 represents 0 to 25% damage), the “damage to plants, Ms” value (Mustard [1]; 5 kg/ha) was 0 (0 represents 0 to 25% damage) and the “damage to plants, Ip” value (Ipomea [2]; 1 kg/ha) was 0 (0 represents 0 to 25% damage). For the same molecule, the “damage to plants, Ip” value (Ipomea [2]; 5 kg/ha) was 0 (0 represents 0 to 25% damage), the “damage to plants, Sf” value (Sunflower [3]; 1 kg/ha) was 0 (0 represents 0 to 25% damage) and the “damage to plants, Sf” value (Sunflower [3]; 5 kg/ha) was 0 (0 represents 0 to 25% damage). The “damage to plants, Jm” value (Japanese millet [4]; 1 kg/ha) was 3 (3 represents 75 to 99% kill), the “damage to plants, Jm” value (Japanese millet [4]; 5 kg/ha) was 3 (3 represents 75 to 99% kill) and the “damage to plants, Rg” value (Ryegrass [5]; 1 kg/ha) was 1. The “damage to plants, Rg” value (Ryegrass [5]; 5 kg/ha) was 3 (3 represents 75 to 99% kill), the “damage to plants, Ot” value (Wild Oats [6]; 1 kg/ha) was 0 (0 represents 0 to 25% damage) and the “damage to plants, Ot” value (Wild Oats [6]; 5 kg/ha) was 0 (0 represents 0 to 25% damage). For the same molecule, the “damage to plants, Ms” value (Mustard [7]; 1 kg/ha) was 0 (0 represents from 0 to 25% damage), the “damage to plants, Ms” value (Mustard [7]; 5 kg/ha) was 0 (0 represents from 0 to 25% damage) and the “damage to plants, Ip” value (Ipomea [8]; 1 kg/ha) was 0 (0 represents from 0 to 25% damage). The “damage to plants, Ip” value (Ipomea [8]; 5 kg/ha) was 0 (0 represents from 0 to 25% damage), the “damage to plants, Sf” value (Sunflower [9]; 1 kg/ha) was 0 (0 represents from 0 to 25% damage) and the “damage to plants, Sf” value (Sunflower [9]; 5 kg/ha) was 0 (0 represents from 0 to 25% damage). For the same molecule, the “damage to plants, Jm” value (Japanese millet [10]; 1 kg/ha) was 0 (0 represents from 0 to 25% damage), the “damage to plants, Jm” value (Japanese millet [10]; 5 kg/ha) was 0 (0 represents from 0 to 25% damage) and the “damage to plants, Ot” value (Wild Oats [11]; 1 kg/ha) was 0 (0 represents from 0 to 25% damage). For the same molecule, the “damage to plants, Ot” value (Wild Oats [11]; 5 kg/ha) was 0 (0 represents from 0 to 25% damage), the “damage to plants, Wh” value (Wheat [12]; 1 kg/ha) was 0 (0 represents 0 to 25% damage) and the “damage to plants, Wh” value (Wheat [12]; 5 kg/ha) was 0 (0 represents 0 to 25% damage). The “damage to plants, Rg” value (Ryegrass [13]; 1 kg/ha) was 0 (0 represents from 0 to 25% damage), the “damage to plants, Rg” value (Ryegrass [13]; 5 kg/ha) was 1 and the “damage to plants, Wh” value (Wheat [14]; 1 kg/ha) was 0 (0 represents from 0 to 25% damage). For the same molecule, the “damage to plants, Wh” value (Wheat [14]; 5 kg/ha) was 0 (0 represents from 0 to 25% damage).
With `COC(=O)C(C)Oc1ccc(Nc2ccc(Cl)cc2)cc1` (stereo not drawn) [Compound 12, Methyl 2-[4-(4-chloroanilino)prienoxy]propionate] the “damage to test plants, Rc” value (Rice [15]) was 0 (0 is 0 to 20% damage), the “damage to test plants, Mz” value (Maize [16]) was 2 and the “damage to test plants, Ww” value (Winter wheat [17]) was 0 (0 is 0 to 20% damage). For the same molecule, the “damage to test plants, Ca” value (Chenopodium album) was 0 (0 is 0 to 20% damage), the “damage to test plants, Ip” value (Ipomea purpurea) was 0 (0 is 0 to 20% damage) and the “damage to test plants, Ct” value (Cotton [18]) was 0 (0 is 0 to 20% damage). The “damage to test plants, Sb” value (Sugar beet [19]) was 1, the “damage to test plants, Am” value (Amaranthus retroflexus) was 2 and the “damage to test plants, Pi” value (Polygonum aviculare) was 0 (0 is 0 to 20% damage). For the same molecule, the “damage to test plants, Rp” value (Rape [20]) was 0 (0 is 0 to 20% damage), the “damage to test plants, Sy” value (Soy bean [21]) was 0 (0 is 0 to 20% damage) and the “damage to test plants, Sn” value (Senecio vulgaris [22]) was 1. For the same molecule, the “herbicidal damage, Mz” value (Maize [23]) was 0 (0 is 0 to 20% damage), the “herbicidal damage, Rc” value (Rice [24]) was 0 (0 is 0 to 20% damage) and the “herbicidal damage, Ct” value (Cotton [25]) was 1. The “herbicidal damage, Sb” value (Sugar beet [26]) was 2, the “herbicidal damage, Ww” value (Winter wheat [27]) was 0 (0 is 0 to 20% damage) and the “herbicidal damage, Rp” value (Rape [28]) was 1. The “herbicidal damage, Sy” value (Soy bean [29]) was 1 and the “herbicidal damage, Sn” value (Senecio vulgaris [30]) was 0 (0 is 0 to 20% damage).

From EP0013144A1, “Substituted diphenylamine derivatives, compositions and herbicidal uses thereof, and processes for their preparation” (ICI AUSTRALIA LIMITED, priority 1978, dated 1980)
